According to patent US9771343B2, “2-alkyl-or-aryl-substituted tanshinone derivatives, and preparation method and application thereof” (Hangzhou Bensheng Pharmaceutical Co., Ltd., priority 2011, dated 2017):
≈ marks a conversion by molar mass, not a printed value.

What was measured:
[1] = system: K562/adr (drug-resistant, chronic myeloid leukemia, CML); assay: MTT cell growth inhibition, K562/adr leukemia cells, 72 h; assay type: cell-based; conditions: Homo sapiens, K562/Adr
Experimental: (§1) The standard sample of tanshinone I (TA) and the 2-alkyl- or 2-aromatic-substituted tanshinone I derivatives of the present invention are sufficiently dissolved in dimethylsulfoxide to produce a stock solution of 10 mg/mL, which is refrigerated at 4° C. and stored in dark, and is diluted with cell culture medium to a desired concentration prior to experimentation.
(§2) Obtaining 6000 well-growing leukemia cells and inoculating them into wells of a 96-well cell culture plate. The culture medium is the RPMI-1640 cell culture medium containing 10% fetal bovine serum. After adding on the second day the 2-alkyl- or 2-aromatic-substituted tanshinone I derivatives of different concentrations and mixing uniformly, placing the plate in a carbon dioxide cell incubator (5% CO2) at 37° C. and incubated for 72 hours. Then the viable cell concentration is determined by MTT method. In this experiment, the cell viability in control group (not treated with any compound) is set as 100%, and the cell viability (%) after treatment by the compounds and the half maximum inhibitory concentration for the leukemia cell at 72 hours (IC50 value of 72 hours, μg/mL) are calculated.

[2] = system: Jurkat (acute lymphoblastic leukemia, ALL); assay: MTT cell growth inhibition, Jurkat leukemia cells, 72 h; assay type: cell-based
Experimental: as §1, §2

[3] = system: Kasumi-1 (acute myeloid leukemia M2 type, AML-M2); assay: MTT cell growth inhibition, Kasumi-1 leukemia cells, 72 h; assay type: cell-based; conditions: Homo sapiens, Kasumi-1, 72 h
Experimental: as §1, §2

[4] = system: SK-OV-3 (ovarian cancer cell); assay: MTT cell growth inhibition, SK-OV-3 cells, 72 h; assay type: cell-based, human
Experimental: (§3) The standard sample of tanshinone I (TA) and the 2-alkyl- or 2-aromatic-substituted tanshinone I derivatives of the present invention are sufficiently dissolved in dimethylsulfoxide to produce a stock solution of 10 mg/mL, which is refrigerated at 4° C. and stored in dark, and is diluted with a cell culture medium to the desired concentration prior to experimentation.
(§4) Obtaining 6000 well-growing human solid tumor cells and inoculating them into wells of a 96-well cell culture plate. The culture medium is DMEM High Glucose cell culture medium containing 10% fetal bovine serum. The plate is placed in a carbon dioxide cell incubator (5% CO2) at 37° C. and incubated for 24 hours. After adding the 2-alkyl- or 2-aromatic-substituted tanshinone I derivatives of different concentrations and mixing uniformly, the plate is placed in a carbon dioxide cell incubator (5% CO2) at 37° C. and incubated for 72 hours. Then the viable cell concentration is determined by MTT method. In this experiment, the cell viability in control group (not treated with any compound) is set as 100%, and the cell viability (%) after treatment by the compounds and the half maximum inhibitory concentration for the leukemia cell at 72 hours (IC50 value of 72 hours, μg/mL) are calculated.

[5] = system: MG63 (osteosarcoma); assay: MTT cell growth inhibition, MG63 cells, 72 h; assay type: cell-based, human; conditions: Homo sapiens, MG-63, 72 h
Experimental: as §3, §4

[6] = system: PANC-1 (pancreatic cancer); assay: MTT cell growth inhibition, PANC-1 cells, 72 h; assay type: cell-based, human; conditions: Homo sapiens, PANC-1, 72 h
Experimental: as §3, §4

[7] = system: Hela (human cervical cancer cell); assay: MTT cell growth inhibition, Hela cells, 72 h; assay type: cell-based
Experimental: as §3, §4

[8] = system: Hep G2 (human liver cancer cell); assay: MTT cell growth inhibition, Hep G2 cells, 72 h; assay type: cell-based
Experimental: as §3, §4

[9] = system: H9 (acute lymphoblastic leukemia, ALL); assay: MTT cell growth inhibition, H9 leukemia cells, 72 h; assay type: cell-based; conditions: H9, 72 h
Experimental: as §1, §2

[10] = system: MGC 803 (human gastric cancer cell); assay: MTT cell growth inhibition, MGC 803 cells, 72 h; assay type: cell-based; conditions: Homo sapiens, MGC-803, 72 h
Experimental: as §3, §4

[11] = system: RPMI8226 (multiple myeloma); assay: MTT cell growth inhibition, RPMI8226 multiple myeloma cells, 72 h; assay type: cell-based, human
Experimental: as §1, §2

[12] = system: PC-3 (prostate cancer); assay: MTT cell growth inhibition, PC-3 cells, 72 h; assay type: cell-based, human; conditions: Homo sapiens, PC-3, 72 h
Experimental: as §3, §4

[13] = system: Hep-2 (laryngeal carcinoma); assay: MTT cell growth inhibition, Hep-2 cells, 72 h; assay type: cell-based, human; conditions: Homo sapiens, HEp-2, 72 h
Experimental: as §3, §4

[14] = system: RKO (human colon adenocarcinoma cell); assay: MTT cell growth inhibition, RKO cells, 72 h; assay type: cell-based
Experimental: as §3, §4

[15] = system: NB4 (acute promyelocytic leukemia, AML); assay: MTT cell growth inhibition, NB4 leukemia cells, 72 h; assay type: cell-based; conditions: NB4, 72 h
Experimental: as §1, §2

[16] = system: CNE (nasopharyngeal carcinoma cell); assay: MTT cell growth inhibition, CNE cells, 72 h; assay type: cell-based, human
Experimental: as §3, §4

[17] = system: A549 (human lung cancer); assay: MTT cell growth inhibition, A549 cells, 72 h; assay type: cell-based; conditions: Homo sapiens, A549, 72 h
Experimental: as §3, §4

[18] = system: CaES-17 (esophageal cancer cell); assay: MTT cell growth inhibition, CaES-17 cells, 72 h; assay type: cell-based, human; conditions: Homo sapiens, CaEs17, CaEs-17, 72 h
Experimental: as §3, §4

[19] = system: U87 MG (malignant glioma cell); assay: MTT cell growth inhibition, U87 MG cells, 72 h; assay type: cell-based, human
Experimental: as §3, §4

[20] = system: Becap37 (human breast cancer cell); assay: MTT cell growth inhibition, Becap37 cells, 72 h; assay type: cell-based
Experimental: as §3, §4

## Cc1c(-c2ccc(OCC(O)CO)cc2)oc2c1C(=O)C(=O)c1c-2ccc2c(C)cccc12 (stereo not shown) [BS-TA-301]
[1]; read-out: IC50
  IC50: 1.36 µg/mL (≈ 3.07 µM)
[1]; read-out: IC90
  IC90: 7.61 µg/mL (≈ 17.2 µM)
[2]; Homo sapiens, 72 h, read-out: IC50
  IC50: 0.48 µg/mL (≈ 1.08 µM)
[2]; Homo sapiens, 72 h, read-out: IC90
  IC90: > 16 µg/mL
[2]; vs tanshinone I
  improvement of anti-Jurkat activity as compared with tanshinone I per se: more than 3 fold
[3]; read-out: IC50
  IC50: 0.97 µg/mL (≈ 2.19 µM)
[3]; read-out: IC90
  IC90: 31.1 µg/mL (≈ 70.3 µM)
[4]; Homo sapiens, SK-OV-3, 72 h, read-out: IC50
  IC50: 11.7 µg/mL (≈ 26.5 µM)
[4]; Homo sapiens, SK-OV-3, 72 h, read-out: IC90
  IC90: > 16 µg/mL
[4]; Table 2
  anti-SK-OV-3 activity (in words): superior to that of tanshinone I per se
[5]; read-out: IC50
  IC50: 1.62 µg/mL (≈ 3.66 µM)
[5]; read-out: IC90
  IC90: 7.44 µg/mL (≈ 16.8 µM)
[6]; read-out: IC50
  IC50: 7.34 µg/mL (≈ 16.6 µM)
[6]; read-out: IC90
  IC90: 24.1 µg/mL (≈ 54.5 µM)
[7]; Homo sapiens, HeLa, 72 h, read-out: IC50
  IC50: 1.07 µg/mL (≈ 2.42 µM)
[7]; Homo sapiens, HeLa, 72 h, read-out: IC90
  IC90: 24 µg/mL (≈ 54.3 µM)
[7]; Table 2
  anti-Hela activity (in words): superior to that of tanshinone I per se
[8]; Homo sapiens, HepG2, Hep G2, 72 h, read-out: IC50
  IC50: 2.09 µg/mL (≈ 4.72 µM)
[8]; Homo sapiens, HepG2, Hep G2, 72 h, read-out: IC90
  IC90: 16.3 µg/mL (≈ 36.9 µM)
[8]; Table 2
  anti-Hep G2 activity (in words): superior to that of tanshinone I per se
[9]; read-out: IC50
  IC50: 3 µg/mL (≈ 6.78 µM)
[9]; read-out: IC90
  IC90: > 16 µg/mL
[10]; read-out: IC50
  IC50: 1.74 µg/mL (≈ 3.93 µM)
[10]; read-out: IC90
  IC90: 16 µg/mL (≈ 36.2 µM)
[11]; Homo sapiens, RPMI 8226, 72 h, read-out: IC50
  IC50: 0.58 µg/mL (≈ 1.31 µM)
[11]; Homo sapiens, RPMI 8226, 72 h, read-out: IC90
  IC90: 16.2 µg/mL (≈ 36.6 µM)
[11]; as compared with tanshinone I per se
  anti-RPMI8226 cell line activity (in words): improves the anti-RPMI8226 cell line activity significantly
[12]; read-out: IC50
  IC50: 9.94 µg/mL (≈ 22.5 µM)
[12]; read-out: IC90
  IC90: > 16 µg/mL
[13]; read-out: IC50
  IC50: 5.27 µg/mL (≈ 11.9 µM)
[13]; read-out: IC90
  IC90: > 16 µg/mL
[14]; Homo sapiens, RKO, 72 h, read-out: IC50
  IC50: 0.87 µg/mL (≈ 1.97 µM)
[14]; Homo sapiens, RKO, 72 h, read-out: IC90
  IC90: 26.6 µg/mL (≈ 60 µM)
[14]; Table 2
  anti-RKO activity (in words): superior to that of tanshinone I per se
[15]; read-out: IC50
  IC50: 0.31 µg/mL (≈ 0.701 µM)
[15]; read-out: IC90
  IC90: 3.22 µg/mL (≈ 7.28 µM)
[16]; Homo sapiens, CNE, 72 h, read-out: IC50
  IC50: 3.2 µg/mL (≈ 7.23 µM)
[16]; Homo sapiens, CNE, 72 h, read-out: IC90
  IC90: 45 µg/mL (≈ 102 µM)
[16]; Table 2
  anti-CNE activity (in words): good antitumor activity
[17]; read-out: IC50
  IC50: 6.68 µg/mL (≈ 15.1 µM)
[17]; read-out: IC90
  IC90: 25.9 µg/mL (≈ 58.5 µM)
[18]; read-out: IC50
  IC50: 3.78 µg/mL (≈ 8.54 µM)
[18]; read-out: IC90
  IC90: > 16 µg/mL
[19]; Homo sapiens, U-87 MG, U87-MG, 72 h, read-out: IC50
  IC50: 2.85 µg/mL (≈ 6.44 µM)
[19]; Homo sapiens, U-87 MG, U87-MG, 72 h, read-out: IC90
  IC90: 15.4 µg/mL (≈ 34.9 µM)
[19]; Table 2
  anti-U87 MG activity (in words): superior to that of tanshinone I per se
[20]; Homo sapiens, Becap-37, 72 h, read-out: IC50
  IC50: 1.99 µg/mL (≈ 4.5 µM)
[20]; Homo sapiens, Becap-37, 72 h, read-out: IC90
  IC90: 7.83 µg/mL (≈ 17.7 µM)
[20]; Table 2
  anti-Becap37 activity (in words): superior to that of tanshinone I per se
